The structures appear in SMILES notation. Starred links: 1 amine or outer side, 2 acyl side, 3 side chain; linkers in the order of their positions; H or OH if unused. Non-standard residues stand in square brackets, D forms with d. Residues, ends and D or L forms follow the SMILES beside them. Groups on a side chain read outwards from the residue. *: point of attachment. X1 = COc1cc2c(cc1-c1cccc(N*)c1)-c1c(c(C(=O)N3CCOCC3(C)C)nn1-c1cc(Cl)cc(Cl)c1)CO2; DOTA = O=C(O)CN1CCN(CC(=O)O)CCN(CC(=O)*)CCN(CC(=O)O)CC1; Suc = O=C(CCC(=O)[*:2])[*:1] A value given as a limit tells only on which side of the number the result lay.

This assay concerns the target T1, human follicle-stimulating hormone receptor (FSHR) (Homo sapiens, UniProt P23945).
T1 construct: host or cells: CHO-K1
T1 sequence (P23945 18-695): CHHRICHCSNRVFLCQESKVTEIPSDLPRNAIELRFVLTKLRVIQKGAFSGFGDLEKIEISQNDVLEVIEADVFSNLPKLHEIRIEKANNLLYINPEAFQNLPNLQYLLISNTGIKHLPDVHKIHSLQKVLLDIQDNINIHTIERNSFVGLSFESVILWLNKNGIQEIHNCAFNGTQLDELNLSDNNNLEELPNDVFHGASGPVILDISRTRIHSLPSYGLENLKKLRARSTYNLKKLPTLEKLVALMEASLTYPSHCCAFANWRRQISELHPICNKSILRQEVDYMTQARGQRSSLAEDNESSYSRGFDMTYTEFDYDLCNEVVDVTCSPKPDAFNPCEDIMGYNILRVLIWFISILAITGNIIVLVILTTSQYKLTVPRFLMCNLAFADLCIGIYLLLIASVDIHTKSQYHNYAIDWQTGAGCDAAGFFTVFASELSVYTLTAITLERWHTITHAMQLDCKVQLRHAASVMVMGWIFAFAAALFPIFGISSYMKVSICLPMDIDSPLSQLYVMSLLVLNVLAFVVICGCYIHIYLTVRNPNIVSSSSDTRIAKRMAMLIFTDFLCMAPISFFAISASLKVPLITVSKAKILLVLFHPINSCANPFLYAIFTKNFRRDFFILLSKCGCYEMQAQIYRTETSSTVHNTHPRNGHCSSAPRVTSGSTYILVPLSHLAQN
Kind of assay: Measurement of agonist cAMP production by activation of human FSHR. The class given is cell-based. The note with it: CHO-K1 human FSHR cells, 30 minutes at 37° C., HTRF cAMP kit; read-out: hFSHR Agonist cAMP EC50. The method in brief: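 cAMP output was measured by HTRF after 30 min at 37 °C agonist exposure (0–10,000 nM final) in stably FSHR-transfected CHO-K1 cells. Lysate cAMP was read off a standard curve and fitted to obtain half-maximal EC50.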
(In general: cAMP levels reflect the balance of adenylyl cyclase and phosphodiesterase activity.)
The EC50 is the concentration that produces a half-maximal response. Consider `COc1cc2c(cc1-c1cncc(OCCCNC(=O)[C@@H](CCC(=O)O)NC(=O)CCNC(=O)CN3CCN(CC(=O)O)CCN(CC(=O)O)CCN(CC(=O)O)CC3)c1)-c1c(c(C(=O)N3CCCN(C(=O)C4CCC4)CC3)nn1-c1cccs1)CO2` [Compound 77], for which the EC50 lay in the range of 0.01 to 0.1 µM.

`COc1cc2c(cc1-c1cncc(OCCCNC(=O)[C@@H](CCCNC(=N)N)NC(=O)CCNC(=O)CN3CCN(CC(=O)O)CCN(CC(=O)O)CCN(CC(=O)O)CC3)c1)-c1c(c(C(=O)N3CCCN(C(=O)C4CCC4)CC3)nn1-c1cccs1)CO2` [Compound 78, (R)-2,2′,2″-(10-(2-((3-((1-((3-((5-(3-(4-(cyclobutanecarbonyl)-1,4-diazepane-1carbonyl)-7-methoxy-1-(thiophen-2-yl)-1,4-dihydrochromeno|4,3-c|pyrazol-8-yl)pyridin-3-yl)oxy)propyl)amino)-5-guanidino-1-oxopentan-2-yl)amino)-3-oxopropyl)amino)-2-oxoethyl)-1,4,7,10-tetraazacyclododecane-1,4,7-triyl)triacetic acid--2,2,2-trifluoroacetic acid (1/1)]: the EC50 was less than 0.01 µM.

As to `COc1cc2c(cc1-c1cncc(NC(=O)CCOCCOCCOCCOCCNC(=O)[C@H](CS(=O)(=O)O)NC(=O)CN3CCN(CC(=O)O)CCN(CC(=O)O)CCN(CC(=O)O)CC3)c1)-c1c(c(C(=O)N3CCOCC3(C)C)nn1-c1cc(Cl)cc(Cl)c1)CO2` [Compound 80], the EC50 fell in the range of 0.01 to 0.1 µM.

For the compound `COc1cc2c(cc1-c1cncc(NC(=O)CCCNC(=O)[C@@H](CCCNC(=N)N)NC(=O)CCNC(=O)CN3CCN(CC(=O)O)CCN(CC(=O)O)CCN(CC(=O)O)CC3)c1)-c1c(c(C(=O)N3CCOCC3(C)C)nn1-c1cc(Cl)cc(Cl)c1)CO2` [Compound 81, (R)-2,2′,2″-(10-(2-((3-((1-((4-((5-(1-(3,5-dichlorophenyl)-3-(3,3dimethylmorpholine-4-carbonyl)-7-methoxy-1,4-dihydrochromeno|4,3-clpyrazol-8-yl)pyridin-3-yl)amino)-4-oxobutyl)amino)-5-guanidino-1-oxopentan-2-yl)amino)-3-oxopropyl)amino)-2-oxoethyl)-1,4,7,10-tetraazacyclododecane-1,4,7-triyl)triacetic acid--2,2,2-trifluoroacetic acid (1/1)], the EC50 was less than 0.01 µM.

Take `COc1cc2c(cc1-c1cccc(NC(=O)CCC(=O)NCCCC[C@@H](NC(=O)[C@@H](CCC(=O)O)NC(=O)[C@@H](CCCNC(=N)N)NC(=O)[C@@H](C)NC(=O)CN3CCN(CC(=O)O)CCN(CC(=O)O)CCN(CC(=O)O)CC3)C(=O)N[C@H](CCCNC(=N)N)C(=O)N[C@H](CCC(=O)O)C(=O)N[C@H](C)C(N)=O)c1)-c1c(c(C(=O)N3CCOCC3(C)C)nn1-c1cc(Cl)cc(Cl)c1)CO2` [Compound 83, 2,2′,2″-(10-((4R,7R,10R,13R,16R,19R,22R)-23-amino-10,19-bis(2carboxyethyl)-13-(4-(4-((3-(1-(3,5-dichlorophenyl)-3-(3,3-dimethylmorpholine-4-carbonyl)-7-methoxy-1,4-dihydrochromeno|4,3-c|pyrazol-8-yl)phenyl)amino)-4-oxobutanamido)butyl)-7,16-bis(3-guanidinopropyl)-4,22-dimethyl-2,5,8,11,14,17,20,23-octaoxo-3,6,9,12,15,18,21-heptaazatricosyl)-1,4,7,10-tetraazacyclododecane-1,4,7-triyl)triacetic acid] ({DOTA}-[dA][dR][dE][dK]([Suc-X1])[dR][dE][dA]-NH2): the EC50 lay within 0.01 to 0.1 µM.

With `COc1cc2c(cc1-c1cccc(NC(=O)CCC(=O)NCCCC[C@@H](NC(=O)[C@@H](CCC(=O)O)NC(=O)[C@@H](CCCNC(=N)N)NC(=O)[C@@H](CCC(=O)O)NC(=O)[C@@H](CCCNC(=N)N)NC(=O)[C@@H](C)NC(=O)CN3CCN(CC(=O)O)CCN(CC(=O)O)CCN(CC(=O)O)CC3)C(=O)N[C@H](C)C(N)=O)c1)-c1c(c(C(=O)N3CCOCC3(C)C)nn1-c1cc(Cl)cc(Cl)c1)CO2` [Compound 84, 2,2′,2″-(10-((4R,7R,10R,13R,16R,19R)-19-(((R)-1-amino-1-oxopropan-2yl)carbamoyl)-10,16-bis(2-carboxyethyl)-28-((3-(1-(3,5-dichlorophenyl)-3-(3,3-dimethylmorpholine-4-carbonyl)-7-methoxy-1,4-dihydrochromeno|4,3-clpyrazol-8-yl)phenyl)amino)-7,13-bis(3-guanidinopropyl)-4-methyl-2,5,8,11,14,17,25,28-octaoxo-3,6,9,12,15,18,24-heptaazaoctacosyl)-1,4,7,10-tetraazacyclododecane-1,4,7-triyl)triacetic acid] ({DOTA}-[dA][dR][dE][dR][dE][dK]([Suc-X1])[dA]-NH2), the EC50 was 0.01 to 0.1 µM.

Consider `COc1cc2c(cc1-c1cccc(NC(=O)CCC(=O)NCCCC[C@@H](NC(=O)[C@@H](CO)NC(=O)[C@@H](CC(N)=O)NC(=O)[C@@H](CO)NC(=O)[C@@H](CC(N)=O)NC(=O)[C@@H](C)NC(=O)CN3CCN(CC(=O)O)CCN(CC(=O)O)CCN(CC(=O)O)CC3)C(=O)N[C@H](C)C(N)=O)c1)-c1c(c(C(=O)N3CCOCC3(C)C)nn1-c1cc(Cl)cc(Cl)c1)CO2` [Compound 85] ({DOTA}-[dA][dN][dS][dN][dS][dK]([Suc-X1])[dA]-NH2), for which the EC50 was in the range of 0.01 to 0.1 µM.

Turning to `COc1cc2c(cc1-c1cccc(NC(=O)CCC(=O)NCCCC[C@@H](NC(=O)[C@@H](C)NC(=O)[C@@H](CCC(=O)O)NC(=O)[C@@H](C)NC(=O)CN3CCN(CC(=O)O)CCN(CC(=O)O)CCN(CC(=O)O)CC3)C(=O)N[C@H](C)C(=O)N[C@H](CCC(=O)O)C(=O)N[C@H](C)C(N)=O)c1)-c1c(c(C(=O)N3CCOCC3(C)C)nn1-c1cc(Cl)cc(Cl)c1)CO2` [Compound 86, (4R,7R,10R,13R,16R)-4-(((R)-1-amino-1-oxopropan-2-yl)carbamoyl)-10-(4-(4((3-(1-(3,5-dichlorophenyl)-3-(3,3-dimethylmorpholine-4-carbonyl)-7-methoxy-1,4-dihydrochromeno|4,3-clpyrazol-8-yl)phenyl)amino)-4-oxobutanamido)butyl)-7,13-dimethyl-6,9,12,15-tetraoxo-16-((R)-2-(2-(4,7,10-tris(carboxymethyl)-1,4,7,10-tetraazacyclododecan-1-yl)acetamido)propanamido)-5,8,11,14-tetraazanonadecanedioic acid] ({DOTA}-[dA][dE][dA][dK]([Suc-X1])[dA][dE][dA]-NH2), the EC50 was in the range of 0.01 to 0.1 µM.

For `COc1cc2c(cc1-c1cccc(NC(=O)CCC(=O)NCCCC[C@@H](NC(=O)[C@@H](C)NC(=O)CN3CCN(CC(=O)O)CCN(CC(=O)O)CCN(CC(=O)O)CC3)C(=O)N[C@H](CCC(=O)O)C(=O)N[C@H](CCC(=O)O)C(=O)N[C@H](CCC(=O)O)C(=O)N[C@H](CCC(=O)O)C(=O)N[C@H](C)C(N)=O)c1)-c1c(c(C(=O)N3CCOCC3(C)C)nn1-c1cc(Cl)cc(Cl)c1)CO2` [Compound 87, 2,2′,2″-(10-((4R,7R,10R,13R,16R,19R,22R)-23-amino-10,13,16,19-tetrakis(2carboxyethyl)-7-(4-(4-((3-(1-(3,5-dichlorophenyl)-3-(3,3-dimethylmorpholine-4-carbonyl)-7-methoxy-1,4-dihydrochromeno|4,3-c|pyrazol-8-yl)phenyl)amino)-4-oxobutanamido)butyl)-4,22-dimethyl-2,5,8,11,14,17,20,23-octaoxo-3,6,9,12,15,18,21-heptaazatricosyl)-1,4,7,10-tetraazacyclododecane-1,4,7-triyl)triacetic acid] ({DOTA}-[dA][dK]([Suc-X1])[dE][dE][dE][dE][dA]-NH2), the EC50 lay within 0.01 to 0.1 µM.

For `COc1cc2c(cc1-c1cccc(NC(=O)CCC(=O)NCCCC[C@@H](NC(=O)[C@@H](CCC(=O)O)NC(=O)[C@@H](CCC(=O)O)NC(=O)[C@@H](C)NC(=O)CN3CCN(CC(=O)O)CCN(CC(=O)O)CCN(CC(=O)O)CC3)C(=O)N[C@H](CCC(=O)O)C(=O)N[C@H](CCC(=O)O)C(=O)N[C@H](C)C(N)=O)c1)-c1c(c(C(=O)N3CCOCC3(C)C)nn1-c1cc(Cl)cc(Cl)c1)CO2` [Compound 88] ({DOTA}-[dA][dE][dE][dK]([Suc-X1])[dE][dE][dA]-NH2), the EC50 lay in the range of 0.01 to 0.1 µM.

In the case of `COc1cc2c(cc1-c1cccc(NC(=O)CCC(=O)NCCCC[C@@H](NC(=O)[C@@H](CCC(=O)O)NC(=O)[C@@H](CCCNC(=N)N)NC(=O)[C@@H](C)NC(=O)CN3CCN(CC(=O)O)CCN(CC(=O)O)CCN(CC(=O)O)CC3)C(=O)N[C@H](CCCNC(=N)N)C(=O)N[C@H](CCCNC(=N)N)C(=O)N[C@H](C)C(N)=O)c1)-c1c(c(C(=O)N3CCOCC3(C)C)nn1-c1cc(Cl)cc(Cl)c1)CO2` [Compound 89] ({DOTA}-[dA][dR][dE][dK]([Suc-X1])[dR][dR][dA]-NH2), the EC50 fell in the range of 0.01 to 0.1 µM.
